Reference: patent publication US20130261133A1, “Therapeutic Compounds for Protozoal and Microbial Infections and Cancer” (THE UNIVERSITY OF MONTANA, priority 2012, published 2013)
Values joined by “and” are separate entries in the source; they are usually repeats but may differ in a detail not shown here. Identical values can stand only once.

Tests used:
[1] = tested on: P. falciparum clone W2/Indochina; assay: In vitro malaria assay, [3H]-hypoxanthine incorporation; format: cell-based; details: Plasmodium falciparum, W2, 72 h, read-out: IC50 Plasmodium
Procedure: a. In vitro Parasite Culturing: P. falciparum clone W2/Indochina was grown in continuous culture using RPMI 1640 media containing 10% heat-inactivated type A+ human plasma, sodium bicarbonate (2.4 g/L), HEPES (5.94 g/L) and 4% washed human type A+ erythrocytes. Cultures were gassed with a 90% N2, 5% O2 and 5% CO2 mixture followed by incubation at 37° C. b. Assay Preparation: Test compounds at 5 mg/mL in DMSO were diluted 1:500 and then serially diluted in duplicate over 11 concentrations. P. falciparum cultures with >70% ring stage parasites were diluted to 0.5-0.7% parasitemia and 1.5% hematocrit in RPMI 1640 media. In 96-well plates a volume of 90 μl/well of parasitized erythrocytes was added on top of 10 μL/well of the test compound. A separate plate containing chloroquine, dihydroartemisinin and atovaquone was added to each set of assay plates as control drugs. A Beckman Coulter Biomek 3000 was used to dispense test compounds, control drugs and parasitized erythrocytes into the microtiter plates. Positive and negative controls were included in each plate. Positive controls consisted of parasitized erythrocytes and negative controls consisted of non-parasitized erythrocytes at 1.5% hematocrit in RPMI 1640 media. Assay plates were placed into a modulator incubator chamber and equilibrated with 90% N2, 5% O2 and 5% CO2 mixture then incubated at 37° C. for 48 hours. After 48 hours, approximately 0.05 μCi of [^3H]-hypoxanthine monohydrochloride was added to each well of the assay plates. Plates were put back into the modulator incubation chamber, gassed with the 90% N2, 5% O2 and 5% CO2 mixture then incubated at 37° C. for an additional 24 hours. After 72 hours total incubation time the plates were frozen at −80° C. until later processed for parasite growth determinations. c. Assay Plate Processing: Assay plates were harvested using a Perkin Elmer FilterMate Harvester. The incorporation of [^3H]-hypoxanthine into nucleic acid was measured using a Perkin Elmer Topcount NXT Microplate Scintillation & Luminescence Counter. d. Data Analysis: Data analysis was performed using a custom database manager (Dataspects, Inc). Nonlinear regression analysis was used to calculate EC50.

Leishmania amazonensis = assay: Antileishmanial assay, Leishmania in infected macrophages (L. amazonensis); details: Leishmania amazonensis
Leishmania donovani = assay: Antileishmanial assay, Leishmania in infected macrophages (L. donovani); details: Leishmania donovani, Macrophage, read-out: IC50 Leishmania in infected macrophages
[2] = tested on: leishmaniasis (LV82 PM infection), liver parasitemia; assay: In vivo efficacy: liver parasitemia in BALB/c mice with leishmaniasis; details: 10 mg/kg i.p.
Procedure: The following protocols were used to prepare the various treatments described in Table 2: • a. Miltefosine ([…] stock solution in sterile PBS): 7.5 mg miltefosine was weighed and put in a eppendorf tube, then 0.75 mL of sterile PBS was added. After vortexing, a clear solution was formed. Make 1 mg/mL solution daily by diluting 100 μL of 10 mg/mL miltefosine solution in 900 μL sterile PBS. • b. Vehicle control: 5% (v/v) DMSO, 50% (v/v) PEG 400, 10% (v/v) Ethanol, and 35% (v/v) distilled water. • c. Compound 47 (2 mg/mL solution of compound 47 in PEG 400/Ethanol vehicle): […]. Dilute the above solution 1:20 with PEG 400/EtOH/water daily. After vortexing and warming up at 37° C. for 30 min., a clear solution formed. • d. Compound 48 (2 mg/mL solution of compound 48 in PEG 400/Ethanol vehicle): 6.8 mg of compound 48 was dissolved in 0.17 mL of DMSO to make a 40 mg/mL stock solution. After vortexing, a yellowish-brown solution was formed. Diluted the above solution 1:20 with PEG 400/EtOH/water daily. After vortexing a clear solution formed. • e. Compound 50 (2 mg/mL solution of compound 50 in PEG 400/Ethanol vehicle): 8.4 mg of compound 50 was dissolved in 0.21 mL of DMSO to make a 40 mg/mL stock solution. After vortexing, a dark yellowish-brown solution was formed. Diluted the above solution 1:20 with PEG 400/EtOH/water. After vortexing a clear solution formed.
(§1) Compounds 47, 48, and 50 were then evaluated in animal studies with BALB/c mice with leishmaniasis. Compounds were delivered via i.p. injection at 10 mg/kg, with untreated, vehicle, and miltefosine controls as described in Table 2. […] Miltefosine, the only oral treatment currently available to treat leishmaniasis in humans, was also evaluated in the BALB/c mice for comparison purposes.

[3] = Body and organ weights of infected, treated BALB/c mice; format: in vivo
Procedure: as §1

| SMILES | IC50 (Leishmania donovani) | also measured |
| --- | --- | --- |
| C=C[C@H](C#CC#C[C@@H](O)CCCCCCCCC)OC(C)=O [Compound 3, (3R,8S)-8-hydroxyheptadeca-1-en-4,6-diyn-3-yl acetate] | – | IC50 [1]: 8.15 µg/mL; anti-Leishmanial activity at 10 μM (Leishmania amazonensis; 10 μM): no anti-Leishmanial activity; IC50 (Leishmania amazonensis; Macrophage, read-out: IC50 Leishmania in infected macrophages): > 10 µM |
| C=C[C@@H](C#CC#C[C@@H](CCCCCCCCC)NC(=O)c1cccc(C)c1)OC(C)=O [Compound 66, (3S,8R)-8-(3-methylbenzamido)heptadeca-1-en-4,6-diyn-3-yl acetate] | 120 nM | – |
| CCCCCCCCC[C@H](C#CC#C[C@@H](O)c1ccccc1)NCCCC [Compound 76, (1S,6R)-6-(butylamino)-1-phenylpentadeca-2,4-diyn-1-ol] | 113 nM | – |
| C=C[C@@H](C#CC#C[C@@H](CCCCCCCCC)NC(=O)c1ccccn1)OC(C)=O [Compound 62, (3S,8R)-8-(picolinamido)heptadeca-1-en-4,6-diyn-3-yl acetate] | 89 nM | – |
| C=C[C@@H](C#CC#C[C@@H](CCCCCCCCC)NC(=O)c1cc(Cl)cc(Cl)c1)OC(C)=O [Compound 70, (3S,8R)-8-(3,5-dichlorobenzamido)heptadeca-1-en-4,6-diyn-3-yl acetate] | 252 nM | – |
| CCCCCCCCC[C@H](C#CC#C[C@@H](O)c1ccc(OCC)cc1)NCCCC [Compound 77, (1S,6R)-6-(butylamino)-1-(4-ethoxyphenyl)pentadeca-2,4-diyn-1-ol] | 443 nM | – |
| C=C[C@@H](C#CC#C[C@@H](CCCCCCCCC)NC(=O)c1ccco1)OC(C)=O [Compound 69, (3S,8R)-8-(furan-2-carboxamido)heptadeca-1-en-4,6-diyn-3-yl acetate] | 50 nM | – |
| C=C[C@H](O)C#CC#C[C@@H](CCCCCCCCC)NC(=O)OCC [Compound 57, ethyl((3S,8R)-3-hydroxyheptadeca-1-en-4,6-diyn-8-yl)carbamate] | 10 nM | – |
| C=C[C@@H](C#CC#CC(CCCCCCCCC)NC(=O)c1ccc(C)cc1)OC(C)=O (stereo in doubt) [Compound 41, (3S,8R)-8-(4-methylbenzamido)heptadeca-1-en-4,6-diyn-3-yl acetate] | 126 nM | – |
| C=C[C@H](O)C#CC#C[C@@H](CCCCCCCCC)OC [Compound 58, (3S,8R)-8-methoxyheptadeca-1-en-4,6-diyn-3-ol] | 11 nM | – |
| C=C[C@@H](C#CC#C[C@@H](CCCCCCCCC)NC(=O)c1cccc(C(F)(F)F)c1)OC(C)=O [Compound 68, (3S,8R)-8-(3-(trifluoromethyl)benzamido)heptadeca-1-en-4,6-diyn-3-yl acetate] | 191 nM | – |
| C=C[C@@H](C#CC#CC(CCCCCCCCC)NC(=O)c1ccc(Cl)cc1)OC(C)=O (stereo in doubt) [Compound 39, (3S,8R)-8-(4-chlorobenzamido)heptadeca-1-en-4,6-diyn-3-yl acetate] | 112 nM | – |
| C=C[C@H](O)C#CC#C[C@@H](CCCCCCCCC)NC(=O)c1ccccc1 [Compound 56, N-((3S,8R)-3-hydroxyheptadeca-1-en-4,6-diyn-8-yl)benzamide] | 5 nM | – |
| C=C[C@H](O)C#CC#C[C@@H](CCCCCCCCC)NCC [Compound 78, (3S,8R)-8-(ethylamino)heptadeca-1-en-4,6-diyn-3-ol] | 30 nM | – |
| C=C[C@@H](C#CC#C[C@@H](CCCCCCCCC)NC(=O)c1ccc(F)cc1)OC(C)=O [Compound 67, (3S,8R)-8-(4-fluorobenzamido)heptadeca-1-en-4,6-diyn-3-yl acetate] | 72 nM | – |
| C=C[C@@H](C#CC#C[C@@H](CCCCCCCCC)NC(=O)CCCOCc1ccccc1)OC(C)=O [Compound 72, (3S,8R)-8-(4-(benzyloxy)butanamido)heptadeca-1-en-4,6-diyn-3-yl acetate] | 529 nM | – |
| CCCCCCCCC[C@H](C#CC#C[C@@H](O)C1CC1)NCCCC [Compound 74, (1S,6R)-6-(butylamino)-1-cyclopropylpentadeca-2,4-diyn-1-ol] | 722 nM | – |
| CCCCCCCCCCCCCCCCOP(=O)([O-])OCC[N+](C)(C)C [Miltefosine, reference compound] | – | LDU mean ± SD ([2]; group mean, n=4): 87.0; % Reduction (Average) in liver parasitemia ([2]; infected BALB/c mice): 98% and 97.8%; # of amastigotes per 200 nuclei ([2]; liver, individual mice): 22 and 13 and 8 and 24; LDU ([2]; total liver parasitemia, individual mice): 109.6 and 67.7 and 35.9 and 134.9; Body weight ([3]; 10 mg/kg i.p., individual mice, Table 4): 18.3 g and 18.0 g and 17.1 g and 20.0 g; Mean body weight of mice Post-treatment ([3]; post-treatment, 10 mg/kg i.p., group mean): 18.4 g; Mean body weight of mice Pre-treatment ([3]; pre-treatment (baseline), group mean): 18.4 g |
| C=C[C@@H](C#CC#C[C@@H](CCCCCCCCC)NC(=O)c1cccc(Br)c1)OC(C)=O [Compound 65, (3S,8R)-8-(3-bromobenzamido)heptadeca-1-en-4,6-diyn-3-yl acetate] | 184 nM | – |
| C=C[C@@H](C#CC#C[C@@H](CCCC1CCCCC1)NC(=O)c1ccccc1)OC(C)=O [Compound 79, (3S,8R)-8-benzamido-11-cyclohexylundeca-1-en-4,6-diyn-3-yl acetate] | 27 nM | – |
| C=C[C@H](O)C#CC#C[C@@H](CCCCCCCCC)NC(C)=O [Compound 59, N-((3S,8R)-3-hydroxyheptadeca-1-en-4,6-diyn-8-yl)acetamide] | 18 nM | – |
| C=C[C@@H](C#CC#CC(CCCCCCCCC)NC(=O)c1ccc(Cl)c(Cl)c1)OC(C)=O (stereo in doubt) [Compound 40, (3S,8R)-8-(3,4-dichlorobenzamido)heptadeca-1-en-4,6-diyn-3-yl acetate] | 428 nM | – |
| C=C[C@@H](C#CC#C[C@@H](CCCCCCCCC)NC(=O)c1cc(C)on1)OC(C)=O [Compound 61, (3S,8R)-8-(5-methylisoxazole-3-carboxamido)heptadeca-1-en-4,6-diyn-3-yl acetate] | 77 nM | – |
| C=C[C@@H](C#CC#C[C@@H](CCCCCCCCC)NC(=O)c1ccccc1Cl)OC(C)=O [Compound 64, (3S,8R)-8-(2-chlorobenzamido)heptadeca-1-en-4,6-diyn-3-yl acetate] | 109 nM | – |
| C=C[C@@H](C#CC#C[C@@H](CCCCCCCCC)NC(=O)c1cnccn1)OC(C)=O [Compound 63, (3S,8R)-8-(pyrazine-2-carboxamido)heptadeca-1-en-4,6-diyn-3-yl acetate] | 42 nM | – |
| C=C[C@@H](C#CC#CC(CCCCCCCCC)NC(=O)c1ccc(OC)cc1)OC(C)=O (stereo in doubt) [Compound 42, (3S,8R)-8-(4-methoxybenzamido)heptadeca-1-en-4,6-diyn-3-yl acetate] | 165 nM | – |
| C=C[C@H](O)C#CC#C[C@@H](CCCCCCCCC)NCCCC [Compound 55, (3S,8R)-8-(butylamino)heptadeca-1-en-4,6-diyn-3-ol] | 3 nM | – |
| C/C=C/[C@H](O)C#CC#C[C@@H](CCCCCCCCC)NCCCC [Compound 75, (4S,9R,E)-9-(butylamino)octadeca-2-en-5,7-diyn-4-ol] | 31 nM | – |
| C=C[C@@H](C#CC#C[C@@H](CCCCCCCCC)N=C=S)OC(C)=O [Compound 71, (3S,8R)-8-isothiocyanatoheptadeca-1-en-4,6-diyn-3-yl acetate] | 21600 nM | – |
